Usually EC50 stands for the concentration giving half of the maximal effect. A higher EC50 goes with weaker potency.

The nature of data set [1]: Cytotoxicity against mouse RAW264.7 cells after 4 hrs by MTT assay. The following applies: read-out: TD50. The class given is cell-based. A general note: Formazan colour is commonly taken as a measure of viable cells.
The next data set deals with Bacillus anthracis. The experiment in a line: Bactericidal activity against Bacillus anthracis. The class given is functional.

The structures appear in SMILES notation. ≈ marks a conversion by molar mass, not a printed value.

As to `CC(C)NC(=O)N[C@H](CNC(=O)N[C@@H](CCCCN)CNC(=O)N[C@H](CNC(=O)N[C@H](CNC(=O)N[C@@H](CCCCN)CNC(=O)N[C@H](CNC(=O)N[C@@H](CCCCN)CNC(=O)N[C@H](CNC(N)=S)C(C)C)Cc1c[nH]c2ccccc12)C(C)C)Cc1c[nH]c2ccccc12)C(C)C`, the CC50 at 4 h in data set [1] was 21 µg/mL (≈ 14.9 µM).

Take `CC(C)NC(=O)N[C@H](CNC(=O)N[C@@H](CCCCN)CNC(=O)N[C@H](CNC(=O)N[C@H](CNC(=O)N[C@@H](CCCCN)CNC(=O)N[C@H](CNC(=O)N[C@@H](CCCCN)CNC(=N)N[C@H](CCC(N)=O)C(C)C)Cc1c[nH]c2ccccc12)C(C)C)Cc1c[nH]c2ccccc12)C(C)C`: in data set [1], the CC50 at 4 h worked out at 15 µg/mL (≈ 10.8 µM).

In the data set on Bacillus anthracis, `CC(C)NC(=O)N[C@H](CNC(=O)N[C@@H](CCCCN)CNC(=O)N[C@H](CNC(=O)N[C@H](CCNC(=O)N[C@@H](CCCCN)CNC(=O)N[C@H](CNC(=O)N[C@@H](CCCCN)CNC(=O)N[C@H](CCC(N)=O)C(C)C)Cc1c[nH]c2ccccc12)C(C)C)Cc1c[nH]c2ccccc12)C(C)C` came in with a 50% effective concentration (EC50) of 7 to 10 µg/mL (≈ 4.99 to 7.13 µM).

As for `CC(C)NC(=O)N[C@H](CNC(=S)N[C@@H](CCCCN)CNC(=O)N[C@H](CNC(=O)N[C@H](CNC(=O)N[C@@H](CCCCN)CNC(=O)N[C@H](CNC(=O)N[C@@H](CCCCN)CNC(=O)N[C@H](CNC(N)=O)C(C)C)Cc1c[nH]c2ccccc12)C(C)C)Cc1c[nH]c2ccccc12)C(C)C`, the CC50 at 4 h in data set [1] was found to be 26 µg/mL (≈ 18.5 µM).

For `CC(C)NC(=O)N[C@H](CNC(=O)N[C@@H](CCCCN)CNC(=O)N[C@H](CNC(=O)N[C@H](CNC(=O)N[C@@H](CCCCN)CNC(=O)N[C@H](CNC(=O)N[C@@H](CCCCN)CNC(=S)N[C@H](CCC(N)=O)C(C)C)Cc1c[nH]c2ccccc12)C(C)C)Cc1c[nH]c2ccccc12)C(C)C`, the CC50 at 4 h in data set [1] is 20.5 µg/mL (≈ 14.6 µM).

`CC(C)NC(=O)N[C@H](CNC(=O)N[C@@H](CCCCN)CNC(=O)N[C@H](CNC(=O)N[C@H](CNC(=S)N[C@@H](CCCCN)CNC(=O)N[C@H](CNC(=O)N[C@@H](CCCCN)CNC(=O)N[C@H](CNC(N)=O)C(C)C)Cc1c[nH]c2ccccc12)C(C)C)Cc1c[nH]c2ccccc12)C(C)C`: the CC50 at 4 h in data set [1] amounted to 28 µg/mL (≈ 19.9 µM).

The record behind these values is ChEMBL document CHEMBL4052745 (Bioorg Med Chem, 2017).
